According to PubChem BioAssay (NCI):
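96-well plates; 48 h exposure; 5 concentrations. Endpoints by linear interpolation between flanking doses. Not reached: highest tested concentration assigned. Here, GI50 denotes the concentration required for 50% inhibition of growth. At the TGI there is no net growth.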

Assays:
Assay in all cases: NCI tumour cell line growth inhibition, 48 h
[1] = test system: SK-MEL-2 melanoma
[2] = test system: HS 578T breast
[3] = test system: SNB-75 CNS
[4] = test system: LOX IMVI melanoma
[5] = test system: M14 melanoma
[6] = test system: K-562 leukemia
[7] = test system: UO-31 renal
[8] = test system: U251 CNS
[9] = test system: SN12C renal
[10] = test system: UACC-257 melanoma

| Structure (SMILES) | TGI [1] [µM] | TGI [2] [µM] | TGI [3] [µM] | TGI [4] [µM] | TGI [5] [µM] | TGI [6] [µM] | TGI [7] [µM] | TGI [8] [µM] | TGI [9] [µM] | TGI [10] [µM] | GI50 [1] [µM] | GI50 [2] [µM] | GI50 [3] [µM] | GI50 [4] [µM] | GI50 [5] [µM] | GI50 [6] [µM] | GI50 [7] [µM] | GI50 [8] [µM] | GI50 [9] [µM] | GI50 [10] [µM] |
| --- | --- | --- | --- | --- | --- | --- | --- | --- | --- | --- | --- | --- | --- | --- | --- | --- | --- | --- | --- | --- |
| CC(=O)[C@H]1CC[C@H]2[C@@H]3CCC4=CC(=O)CC[C@]4(C)[C@H]3CC[C@]12C | 44.3 | 19.7 | 65.6 | 33.3 | 32.4 | 43.2 | 26.4 | 34.1 | 41.1 | 27.2 | – | – | – | – | – | – | – | – | – | – |
| NC(Cc1ccccc1)=NCC(=O)O | > 100 | > 100 | > 100 | > 100 | > 100 | > 100 | > 100 | > 100 | > 100 | > 100 | – | – | – | – | – | – | – | – | – | – |
| O=C(O)CS(=O)c1ccc2c3c(cccc13)C(=O)c1ccccc1-2 (centres undefined) | > 100 | > 100 | > 100 | > 100 | > 100 | > 100 | > 100 | > 100 | > 100 | > 100 | – | – | – | – | – | – | – | – | – | – |
| Cc1ccc2ccc(=O)oc2c1 | > 100 | > 100 | > 100 | > 100 | > 100 | > 100 | > 100 | > 100 | > 100 | > 100 | – | – | – | – | – | – | – | – | – | – |
| O=C(Nc1ccc(-n2cc(-c3ccncc3)c(-c3ccc(O)c(Cl)c3)n2)cc1)c1cc(Cl)cc(Cl)c1 | 2.94 | 6.52 | > 32.5 | > 32.5 | 1.68 | > 32.5 | > 32.5 | > 32.5 | > 32.5 | > 32.5 | 0.899 | 0.939 | 1.35 | 0.853 | 0.712 | 1.02 | 1.62 | 1.32 | 2.44 | 13.8 |
| O=C(O)CCC(C(=O)O)N1C(=O)c2ccccc2C1=O (centres undefined) | > 100 | > 100 | > 100 | > 100 | > 100 | > 100 | > 100 | > 100 | > 100 | > 100 | – | – | – | – | – | – | – | – | – | – |
| CCOC(O)C(F)(F)F (centres undefined) | – | > 100 | > 100 | > 100 | > 100 | > 100 | > 100 | > 100 | > 100 | > 100 | – | – | – | – | – | – | – | – | – | – |
| COc1cc(C(=O)O[C@H](C(=O)NCCNC(=O)[C@@H](OC(=O)c2cc(OC)cc3c(C)cccc23)[C@]2(C)CO2)[C@]2(C)CO2)c2cccc(C)c2c1 | – | > 100 | 1.4 | – | 0.696 | 15.3 | – | 0.306 | 0.263 | 0.343 | < 0.0461 | 0.319 | 0.304 | < 0.01 | 0.178 | < 0.0193 | 0.137 | 0.0225 | 0.0211 | – |
| O=C(Nc1ccc(Cl)cc1)c1cccc([N+](=O)[O-])c1O | 12.5 | – | 26.1 | > 100 | 32.9 | 24.2 | 6.56 | 48.5 | > 74.7 | 8.13 | – | – | – | – | – | – | – | – | – | – |
